Laboratory results published in PubChem BioAssay AID1963843 (Molecular Pharmacology Branch, DTP, NCI, 2024).

System: 616215-338-R-J1-PDC complex spheroid viability
Test: Anticancer human tumor 616215-338-R-J1-PDC patient-derived colon adenocarcinoma cell line growth inhibition [POLQ]
Conditions: for IC50: curve of first compound; for viability, T/C: stronger effect = lower value
How it was run: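 Patient-derived tumour cells were co-cultured with HUVEC and mesenchymal stem cells as multicellular spheroids at 37 °C. They were treated with POLQ inhibitors (novobiocin, ART-558, RP6685) alone or combined with other agents. Top concentrations were at or near clinical Cmax (otherwise 10 microM; SN-38 at 1 microM), decreasing in half-log steps.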

[1] = second compound 0.0316 µM, first compound 0.00316 µM
[2] = second compound 0.0316 µM, first compound 0.01 µM
[3] = second compound 0.0316 µM, first compound 0.0316 µM
[4] = second compound 0.0316 µM, first compound 0.1 µM
[5] = second compound 0.1 µM, first compound 0.00316 µM
[6] = second compound 0.1 µM, first compound 0.01 µM
[7] = second compound 0.1 µM, first compound 0.0316 µM
[8] = second compound 0.1 µM, first compound 0.1 µM
[9] = second compound 0.316 µM, first compound 0.00316 µM
[10] = second compound 0.316 µM, first compound 0.01 µM
[11] = second compound 0.316 µM, first compound 0.0316 µM
[12] = second compound 0.316 µM, first compound 0.1 µM
[13] = second compound 1 µM, first compound 0.00316 µM
[14] = second compound 1 µM, first compound 0.01 µM
[15] = second compound 1 µM, first compound 0.0316 µM
[16] = second compound 1 µM, first compound 0.1 µM
[17] = second compound 3.16 µM, first compound 0.00316 µM
[18] = second compound 3.16 µM, first compound 0.01 µM
[19] = second compound 3.16 µM, first compound 0.0316 µM
[20] = second compound 3.16 µM, first compound 0.1 µM
[21] = second compound 10 µM, first compound 0.00316 µM
[22] = second compound 10 µM, first compound 0.01 µM
[23] = second compound 10 µM, first compound 0.0316 µM
[24] = second compound 10 µM, first compound 0.1 µM
[25] = second compound 0.0316 µM, first compound 0.316 µM
[26] = second compound 0.0316 µM, first compound 1 µM
[27] = second compound 0.1 µM, first compound 0.316 µM
[28] = second compound 0.1 µM, first compound 1 µM
[29] = second compound 0.316 µM, first compound 0.316 µM
[30] = second compound 0.316 µM, first compound 1 µM
[31] = second compound 1 µM, first compound 0.316 µM
[32] = second compound 1 µM, first compound 1 µM
[33] = second compound 3.16 µM, first compound 0.316 µM
[34] = second compound 3.16 µM, first compound 1 µM
[35] = second compound 10 µM, first compound 0.316 µM
[36] = second compound 10 µM, first compound 1 µM
[37] = second compound 0.0316 µM, first compound 3.16 µM
[38] = second compound 0.0316 µM, first compound 10 µM
[39] = second compound 0.1 µM, first compound 3.16 µM
[40] = second compound 0.1 µM, first compound 10 µM
[41] = second compound 0.316 µM, first compound 3.16 µM
[42] = second compound 0.316 µM, first compound 10 µM
[43] = second compound 1 µM, first compound 3.16 µM
[44] = second compound 1 µM, first compound 10 µM
[45] = second compound 3.16 µM, first compound 3.16 µM
[46] = second compound 3.16 µM, first compound 10 µM
[47] = second compound 10 µM, first compound 3.16 µM
[48] = second compound 10 µM, first compound 10 µM
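Also: spheroids exposed to compounds for one week before readout.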
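For viability, T/C in this document: percent viability relative to DMSO vehicle wells taken as 100%.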

CC[C@@]1(O)C(=O)OCc2c1cc1n(c2=O)Cc2cc3c(CN(C)C)c(O)ccc3nc2-1 + Nc1ccc(C#CCN(C(=O)Cc2ncc(C(F)(F)F)cc2C(F)(F)F)c2ccc(F)cc2)nn1
IC50 (second compound 0.0316 µM): 69.9 nM
IC50 (second compound 0.1 µM): 73 nM
IC50 (second compound 0.316 µM): 66.3 nM
IC50 (second compound 1 µM): 66.6 nM
IC50 (second compound 3.16 µM): 59.4 nM
IC50 (second compound 10 µM): 46.1 nM
viability, T/C (second compound 0.0316 µM, first compound 0.000316 µM): 112%
viability, T/C (second compound 0.0316 µM, first compound 0.001 µM): 105%
viability, T/C [1]: 100%
viability, T/C [2]: 101%
viability, T/C [3]: 89.4%
viability, T/C [4]: 32.3%
viability, T/C (second compound 0.1 µM, first compound 0.000316 µM): 103%
viability, T/C (second compound 0.1 µM, first compound 0.001 µM): 103%
viability, T/C [5]: 98.1%
viability, T/C [6]: 102%
viability, T/C [7]: 83.4%
viability, T/C [8]: 37.5%
viability, T/C (second compound 0.316 µM, first compound 0.000316 µM): 111%
viability, T/C (second compound 0.316 µM, first compound 0.001 µM): 119%
viability, T/C [9]: 98.6%
viability, T/C [10]: 99.3%
viability, T/C [11]: 79.8%
viability, T/C [12]: 33.6%
viability, T/C (second compound 1 µM, first compound 0.000316 µM): 108%
viability, T/C (second compound 1 µM, first compound 0.001 µM): 96.6%
viability, T/C [13]: 107%
viability, T/C [14]: 104%
viability, T/C [15]: 66.1%
viability, T/C [16]: 41.1%
viability, T/C (second compound 3.16 µM, first compound 0.000316 µM): 97.9%
viability, T/C (second compound 3.16 µM, first compound 0.001 µM): 108%
viability, T/C [17]: 98.2%
viability, T/C [18]: 98.3%
viability, T/C [19]: 75.3%
viability, T/C [20]: 29.1%
viability, T/C (second compound 10 µM, first compound 0.000316 µM): 85.5%
viability, T/C (second compound 10 µM, first compound 0.001 µM): 90.1%
viability, T/C [21]: 96.4%
viability, T/C [22]: 94.2%
viability, T/C [23]: 55.8%
viability, T/C [24]: 38%

CCc1c2c(nc3ccc(O)cc13)-c1cc3c(c(=O)n1C2)COC(=O)[C@]3(O)CC + Nc1ccc(C#CCN(C(=O)Cc2ncc(C(F)(F)F)cc2C(F)(F)F)c2ccc(F)cc2)nn1
IC50 (second compound 0.0316 µM): 10.4 nM
IC50 (second compound 0.1 µM): 14.8 nM
IC50 (second compound 0.316 µM): 18.1 nM
IC50 (second compound 1 µM): 8.73 nM
IC50 (second compound 3.16 µM): 8.16 nM
IC50 (second compound 10 µM): 7.26 nM
viability, T/C [1]: 82.6%
viability, T/C [2]: 51.4%
viability, T/C [3]: 28.6%
viability, T/C [4]: 23.1%
viability, T/C [25]: 15.7%
viability, T/C [26]: 9.67%
viability, T/C [5]: 85.5%
viability, T/C [6]: 55.2%
viability, T/C [7]: 33.7%
viability, T/C [8]: 32.2%
viability, T/C [27]: 15.5%
viability, T/C [28]: 9.4%
viability, T/C [9]: 72.8%
viability, T/C [10]: 71%
viability, T/C [11]: 30.3%
viability, T/C [12]: 28.1%
viability, T/C [29]: 17.3%
viability, T/C [30]: 10.2%
viability, T/C [13]: 83.8%
viability, T/C [14]: 37.8%
viability, T/C [15]: 34%
viability, T/C [16]: 28.9%
viability, T/C [31]: 17%
viability, T/C [32]: 10.2%
viability, T/C [17]: 77.6%
viability, T/C [18]: 39.2%
viability, T/C [19]: 29.3%
viability, T/C [20]: 28.6%
viability, T/C [33]: 11.9%
viability, T/C [34]: 10.9%
viability, T/C [21]: 59.2%
viability, T/C [22]: 47.8%
viability, T/C [23]: 28.5%
viability, T/C [24]: 22.5%
viability, T/C [35]: 16.1%
viability, T/C [36]: 12.8%

CNCc1ccc(-c2[nH]c3cc(F)cc4c3c2CCNC4=O)cc1 + Nc1ccc(C#CCN(C(=O)Cc2ncc(C(F)(F)F)cc2C(F)(F)F)c2ccc(F)cc2)nn1
IC50 (second compound 0.0316 µM): 7900 nM
IC50 (second compound 0.1 µM): 7180 nM
IC50 (second compound 0.316 µM): 7710 nM
IC50 (second compound 1 µM): 7520 nM
IC50 (second compound 3.16 µM): 7030 nM
IC50 (second compound 10 µM): 6230 nM
viability, T/C [3]: 101%
viability, T/C [4]: 107%
viability, T/C [25]: 97%
viability, T/C [26]: 104%
viability, T/C [37]: 104%
viability, T/C [38]: 36.2%
viability, T/C [7]: 104%
viability, T/C [8]: 111%
viability, T/C [27]: 90.3%
viability, T/C [28]: 119%
viability, T/C [39]: 122%
viability, T/C [40]: 25.8%
viability, T/C [11]: 102%
viability, T/C [12]: 112%
viability, T/C [29]: 104%
viability, T/C [30]: 95.7%
viability, T/C [41]: 119%
viability, T/C [42]: 33.4%
viability, T/C [15]: 107%
viability, T/C [16]: 94.8%
viability, T/C [31]: 95.8%
viability, T/C [32]: 105%
viability, T/C [43]: 106%
viability, T/C [44]: 33%
viability, T/C [19]: 96.8%
viability, T/C [20]: 93.3%
viability, T/C [33]: 93.8%
viability, T/C [34]: 102%
viability, T/C [45]: 105%
viability, T/C [46]: 28.6%
viability, T/C [23]: 93%
viability, T/C [24]: 78.5%
viability, T/C [35]: 102%
viability, T/C [36]: 103%
viability, T/C [47]: 103%
viability, T/C [48]: 17.9%

Nc1ccn(C2OC(CO)C(O)C2(F)F)c(=O)n1 (stereo not drawn) + Nc1ccc(C#CCN(C(=O)Cc2ncc(C(F)(F)F)cc2C(F)(F)F)c2ccc(F)cc2)nn1
IC50 (second compound 0.0316 µM): < 31.6 nM
IC50 (second compound 0.1 µM): < 31.6 nM
IC50 (second compound 0.316 µM): < 31.6 nM
IC50 (second compound 1 µM): < 31.6 nM
IC50 (second compound 3.16 µM): < 31.6 nM
IC50 (second compound 10 µM): < 31.6 nM
viability, T/C [3]: 22.1%
viability, T/C [4]: 17.1%
viability, T/C [25]: 10.8%
viability, T/C [26]: 10.9%
viability, T/C [37]: 14.9%
viability, T/C [38]: 16.1%
viability, T/C [7]: 27.7%
viability, T/C [8]: 15.5%
viability, T/C [27]: 12.6%
viability, T/C [28]: 12.6%
viability, T/C [39]: 12.6%
viability, T/C [40]: 12.6%
viability, T/C [11]: 28.6%
viability, T/C [12]: 24.1%
viability, T/C [29]: 10.9%
viability, T/C [30]: 13.3%
viability, T/C [41]: 12.6%
viability, T/C [42]: 13.8%
viability, T/C [15]: 22.7%
viability, T/C [16]: 15.2%
viability, T/C [31]: 11.2%
viability, T/C [32]: 12.6%
viability, T/C [43]: 13.1%
viability, T/C [44]: 13.3%
viability, T/C [19]: 23.6%
viability, T/C [20]: 19.6%
viability, T/C [33]: 12%
viability, T/C [34]: 10.3%
viability, T/C [45]: 13.6%
viability, T/C [46]: 13.9%
viability, T/C [23]: 26.8%
viability, T/C [24]: 20.3%
viability, T/C [35]: 12.2%
viability, T/C [36]: 12.6%
viability, T/C [47]: 11.3%
viability, T/C [48]: 12.2%
